From PMC10712727, “Safety, Tolerability, and Pharmacokinetics of Senaparib, a Novel PARP1/2 Inhibitor, in Chinese Patients With Advanced Solid Tumors: A Phase I Trial” (The Oncologist, 2023)

System: patients with advanced solid tumors
Assay: Safety: treatment-emergent and senaparib-related adverse events graded per NCI CTCAE v4.03
Assay type: in vivo
Procedure: This phase I, open-label, multicenter, dose-escalation, and dose-expansion study was conducted at three national clinical institutions in China. […] At baseline, all patients enrolled in the dose-escalation phase had to have at least one evaluable lesion, and those in the dose-expansion period had to have at least one measurable lesion, according to Response Evaluation Criteria in Solid Tumors version 1.1 (RECIST v1.1).[16] Entry to the dose-expansion cohort required the presence of a BRCA mutation, with the exception of patients with ovarian carcinoma, fallopian tube carcinoma, and primary peritoneal carcinoma. Full study eligibility criteria are provided in Supplementary Table S1.
Dose escalation was conducted using a modified Fibonacci 3 + 3 method (Supplementary Fig. S1).[17] Patients were administered oral senaparib from a planned starting dose of 2 mg once daily (QD), with preliminary dose escalation to 120 mg via nine dose groups, in order of their entry into the study. At a given dose level, each patient received a single dose of senaparib followed by a 7-day washout period. They then entered a continuous dosing period to confirm the safety and PK profile, in which they received senaparib QD from day 1 to day 21 of each 3-week cycle. Progression to the next higher dose required approval from the Data Safety Monitoring Committee (DSMC) upon review of the safety and PK data of the previous dose. A 50-mg twice-daily (BID) dosing group was added (planned enrollment, n = 6 patients) based on a DSMC review of the safety, PK, and efficacy analysis of the completed QD dose groups in the phase I clinical trial of senaparib dose escalation in Australia (NCT03507543), which commenced prior to the start of this trial.
The dose-expansion period included 3 populations: dose groups in which at least one patient achieved complete response (CR) or partial response (PR) per RECIST v1.1[16] and 1 dose group higher (evaluated for safety), as well as the dose group at the maximum tolerated dose (MTD)/recommended phase II dose (RP2D). Each of these groups included those patients in the respective dose-escalation group plus a planned additional 10 patients (approximately 20 patients in the MTD/RP2D group) with BRCA^mut+ solid tumors (ovarian, breast, or prostate cancer were preferred, and ovarian cancer could be BRCA wild type). Patients received senaparib monotherapy orally QD or BID (50-mg dose only) over each 3-week cycle until disease progression or unacceptable toxicity.
DLTs were predefined toxicities (Supplementary Table S2) recorded over the 7 days following the single-dose administration of senaparib and during the first treatment cycle (day 1-day 21) for each dose group in the dose-escalation period only. The MTD was defined as the maximum dose at which ≤1/6 patients experienced a DLT. Senaparib PK parameters were derived from blood samples collected from patients after the single administration, and at regular intervals during the first cycle of the dose-escalation and dose-expansion periods. Plasma concentrations of senaparib were determined using high-performance liquid chromatography-tandem mass spectrometry. Tumor response was assessed every 6 weeks per RECIST v1.1,[16] recording objective response rate (ORR), disease control rate (DCR), duration of response (DOR), and progression-free survival (PFS) by dose level for all patients and for those harboring BRCA^mut+ tumors.

O=C(c1cc(Cn2c(=O)[nH]c(=O)c3c(F)cccc32)ccc1F)N1CCN(c2ncccn2)CC1 [Senaparib]
1 n ev: SAEs, events (50 mg BID n = 4) | TEAEs leading to dose interruption, events (50 mg BID n = 4) | TEAEs leading to dose reduction, events (50 mg BID n = 4)
0 n ev: TRAEs Grade ≥3, events (40 mg QD n = 3) | TEAEs leading to death, events (50 mg BID n = 4) | TEAEs leading to dose discontinuation, events (50 mg BID n = 4)
26 n ev: TRAEs, events (50 mg BID n = 4)
32 n ev: Any TEAE, events (50 mg BID n = 4)
2 n ev: TRAEs Grade ≥3, events (50 mg BID n = 4)
3 n ev: TEAE Grade ≥3, events (50 mg BID n = 4)
6 n ev: TRAEs, events (40 mg QD n = 3)
0 n (%): TRAEs Grade ≥3, patients (40 mg QD n = 3) | Vomiting TRAE, All (40 mg QD n = 3) | Vomiting TRAE, Gr≥3 (40 mg QD n = 3) | WBC decreased TRAE, All (40 mg QD n = 3) | WBC decreased TRAE, Gr≥3 (40 mg QD n = 3) | ALT increased TRAE, Gr≥3 (50 mg BID n = 4) | AST increased TRAE, Gr≥3 (50 mg BID n = 4) | Appetite decreased TRAE, All (50 mg BID n = 4) | Appetite decreased TRAE, Gr≥3 (50 mg BID n = 4) | Asthenia TRAE, Gr≥3 (50 mg BID n = 4) | Blood bilirubin increased TRAE, All (50 mg BID n = 4) | Blood bilirubin increased TRAE, Gr≥3 (50 mg BID n = 4) | Blood creatinine increased TRAE, All (50 mg BID n = 4) | Blood creatinine increased TRAE, Gr≥3 (50 mg BID n = 4) | Hypokalemia TRAE, All (50 mg BID n = 4) | Hypokalemia TRAE, Gr≥3 (50 mg BID n = 4) | Nausea TRAE, Gr≥3 (50 mg BID n = 4) | Neutrophil count decreased TRAE, All (50 mg BID n = 4) | Neutrophil count decreased TRAE, Gr≥3 (50 mg BID n = 4) | Platelet count decreased TRAE, Gr≥3 (50 mg BID n = 4) | TEAEs leading to death, patients (50 mg BID n = 4) | TEAEs leading to dose discontinuation, patients (50 mg BID n = 4) | Vomiting TRAE, Gr≥3 (50 mg BID n = 4) | WBC decreased TRAE, Gr≥3 (50 mg BID n = 4) | ALT increased TRAE, All (60 mg QD n = 5) | ALT increased TRAE, Gr≥3 (60 mg QD n = 5)
4 (100) n (%): Any TEAE, All (50 mg BID n = 4) | Any TEAE, patients (50 mg BID n = 4) | Any TRAE, All (50 mg BID n = 4) | TRAEs, patients (50 mg BID n = 4)
1 (25.0) n (%): ALT increased TRAE, All (50 mg BID n = 4) | AST increased TRAE, All (50 mg BID n = 4) | Asthenia TRAE, All (50 mg BID n = 4) | Platelet count decreased TRAE, All (50 mg BID n = 4) | SAEs, patients (50 mg BID n = 4) | TEAEs leading to dose interruption, patients (50 mg BID n = 4) | TEAEs leading to dose reduction, patients (50 mg BID n = 4)
3 (75.0) n (%): Anemia TRAE, All (50 mg BID n = 4) | Any TEAE, Gr≥3 (50 mg BID n = 4) | TEAE Grade ≥3, patients (50 mg BID n = 4)
2 (50.0) n (%): Anemia TRAE, Gr≥3 (50 mg BID n = 4) | Any TRAE, Gr≥3 (50 mg BID n = 4) | Nausea TRAE, All (50 mg BID n = 4) | TRAEs Grade ≥3, patients (50 mg BID n = 4) | Vomiting TRAE, All (50 mg BID n = 4) | WBC decreased TRAE, All (50 mg BID n = 4)
3 (100) n (%): TRAEs, patients (40 mg QD n = 3)
